From the NIST ThermoML archive (doi:10.1021/je900691n)

Assay: xn = mol fraction of the nth substance listed
Details: Liquid, Pycnometric method

COC(=O)OC [dimethyl carbonate] + O=C=O
Details | mass density [kg/m3]
313.15 K, 12790 kPa, x1 = 0.1484 | 951
313.15 K, 12900 kPa, x1 = 0.0242 | 816
313.15 K, 12950 kPa, x1 = 0.0481 | 856
313.15 K, 13250 kPa, x1 = 0.118 | 940
313.15 K, 13270 kPa, x1 = 0.0242 | 823
313.15 K, 13310 kPa, x1 = 0.1484 | 955
313.15 K, 13450 kPa, x1 = 0.0481 | 863
313.15 K, 13580 kPa, x1 = 0.086 | 911
313.15 K, 13640 kPa, x1 = 0.0242 | 828
313.15 K, 13730 kPa, x1 = 0.118 | 943
313.15 K, 13790 kPa, x1 = 0.1484 | 957
313.15 K, 13960 kPa, x1 = 0.0242 | 833
313.15 K, 13980 kPa, x1 = 0.0481 | 869
313.15 K, 14120 kPa, x1 = 0.086 | 915
313.15 K, 14140 kPa, x1 = 0.0242 | 836
313.15 K, 14270 kPa, x1 = 0.118 | 947
313.15 K, 14430 kPa, x1 = 0.1484 | 961
313.15 K, 14560 kPa, x1 = 0.0242 | 842
313.15 K, 14620 kPa, x1 = 0.0481 | 877
313.15 K, 14750 kPa, x1 = 0.086 | 920
313.15 K, 14950 kPa, x1 = 0.0242 | 847
313.15 K, 15100 kPa, x1 = 0.1484 | 965
313.15 K, 15210 kPa, x1 = 0.0481 | 882
313.15 K, 15220 kPa, x1 = 0.068 | 924
313.15 K, 15230 kPa, x1 = 0.0242 | 851
313.15 K, 15650 kPa, x1 = 0.1484 | 968
313.15 K, 15900 kPa, x1 = 0.0481 | 890
313.15 K, 15930 kPa, x1 = 0.068 | 930
313.15 K, 16400 kPa, x1 = 0.068 | 933
313.15 K, 16470 kPa, x1 = 0.1484 | 972
317.85 K, 8660 kPa, x1 = 0.0242 | 476
317.85 K, 8710 kPa, x1 = 0.0242 | 485
317.85 K, 8720 kPa, x1 = 0.0242 | 490
317.85 K, 8750 kPa, x1 = 0.0242 | 498
317.85 K, 8780 kPa, x1 = 0.0242 | 506
317.85 K, 8820 kPa, x1 = 0.0242 | 517
317.85 K, 8880 kPa, x1 = 0.0242 | 529
317.85 K, 8930 kPa, x1 = 0.0242 | 542
317.85 K, 9000 kPa, x1 = 0.0242 | 555
317.85 K, 9070 kPa, x1 = 0.0242 | 569
317.85 K, 9150 kPa, x1 = 0.0242 | 583
317.85 K, 9250 kPa, x1 = 0.0242 | 599
317.85 K, 9350 kPa, x1 = 0.0242 | 611
317.85 K, 9500 kPa, x1 = 0.0242 | 628
317.85 K, 9710 kPa, x1 = 0.0242 | 646
317.85 K, 9910 kPa, x1 = 0.0242 | 663
318.15 K, 7340 kPa, x1 = 0.1484 | 884
318.15 K, 7630 kPa, x1 = 0.118 | 856
318.15 K, 7820 kPa, x1 = 0.1484 | 889
318.15 K, 7850 kPa, x1 = 0.118 | 859
318.15 K, 8020 kPa, x1 = 0.086 | 802
318.15 K, 8190 kPa, x1 = 0.118 | 864
318.15 K, 8270 kPa, x1 = 0.1484 | 894
318.15 K, 8410 kPa, x1 = 0.086 | 812
318.15 K, 8550 kPa, x1 = 0.0481 | 683
318.15 K, 8610 kPa, x1 = 0.118 | 870
318.15 K, 8700 kPa, x1 = 0.0481 | 693
318.15 K, 8780 kPa, x1 = 0.1484 | 899
318.15 K, 8830 kPa, x1 = 0.086 | 820
318.15 K, 8880 kPa, x1 = 0.0481 | 706
318.15 K, 9130 kPa, x1 = 0.118 | 876
318.15 K, 9140 kPa, x1 = 0.0481 | 721
318.15 K, 9160 kPa, x1 = 0.086 | 827
318.15 K, 9300 kPa, x1 = 0.1484 | 904
318.15 K, 9450 kPa, x1 = 0.0481 | 735
318.15 K, 9580 kPa, x1 = 0.118 | 882
318.15 K, 9760 kPa, x1 = 0.0481 | 748
318.15 K, 9800 kPa, x1 = 0.1484 | 908
318.15 K, 9810 kPa, x1 = 0.086 | 838
318.15 K, 10180 kPa, x1 = 0.118 | 889
318.15 K, 10200 kPa, x1 = 0.0481 | 758
318.15 K, 10260 kPa, x1 = 0.086 | 845
318.15 K, 10270 kPa, x1 = 0.1484 | 912
318.15 K, 10720 kPa, x1 = 0.1484 | 916
318.15 K, 10740 kPa, x1 = 0.0481 | 777
318.15 K, 10750 kPa, x1 = 0.118 | 895
318.15 K, 10820 kPa, x1 = 0.086 | 853
318.15 K, 11190 kPa, x1 = 0.086 | 858
318.15 K, 11230 kPa, x1 = 0.1484 | 920
318.15 K, 11250 kPa, x1 = 0.0481 | 789
318.15 K, 11280 kPa, x1 = 0.118 | 900
318.15 K, 11720 kPa, x1 = 0.1484 | 924
318.15 K, 11740 kPa, x1 = 0.086 | 865
318.15 K, 11770 kPa, x1 = 0.0481 | 800
318.15 K, 11800 kPa, x1 = 0.118 | 905
318.15 K, 12230 kPa, x1 = 0.086 | 871
318.15 K, 12240 kPa, x1 = 0.0481 | 809
318.15 K, 12260 kPa, x1 = 0.1484 | 928
318.15 K, 12280 kPa, x1 = 0.118 | 909
318.15 K, 12690 kPa, x1 = 0.086 | 876
318.15 K, 12720 kPa, x1 = 0.0481 | 818
318.15 K, 12770 kPa, x1 = 0.118 | 913
318.15 K, 12820 kPa, x1 = 0.1484 | 932
318.15 K, 13270 kPa, x1 = 0.086 | 882
318.15 K, 13280 kPa, x1 = 0.0481 | 826
318.15 K, 13290 kPa, x1 = 0.118 | 918
318.15 K, 13410 kPa, x1 = 0.1484 | 936
318.15 K, 13730 kPa, x1 = 0.0481 | 833
318.15 K, 13750 kPa, x1 = 0.118 | 922
318.15 K, 13840 kPa, x1 = 0.086 | 888
318.15 K, 13900 kPa, x1 = 0.1484 | 939
318.15 K, 14240 kPa, x1 = 0.0481 | 841
318.15 K, 14240 kPa, x1 = 0.118 | 925
318.15 K, 14290 kPa, x1 = 0.086 | 893
318.15 K, 14390 kPa, x1 = 0.1484 | 942
318.15 K, 14710 kPa, x1 = 0.0481 | 847
318.15 K, 14720 kPa, x1 = 0.118 | 929
318.15 K, 14830 kPa, x1 = 0.086 | 898
318.15 K, 15140 kPa, x1 = 0.1484 | 947
318.15 K, 15250 kPa, x1 = 0.118 | 933
318.15 K, 15280 kPa, x1 = 0.086 | 902
318.15 K, 15300 kPa, x1 = 0.0481 | 854
318.15 K, 15760 kPa, x1 = 0.086 | 906
318.15 K, 15770 kPa, x1 = 0.1484 | 950
318.15 K, 15820 kPa, x1 = 0.118 | 937
318.15 K, 16250 kPa, x1 = 0.0481 | 865
318.15 K, 16260 kPa, x1 = 0.118 | 940
318.15 K, 16300 kPa, x1 = 0.086 | 910
318.15 K, 16420 kPa, x1 = 0.1484 | 955
323.15 K, 7960 kPa, x1 = 0.1484 | 862
323.15 K, 8290 kPa, x1 = 0.118 | 829
323.15 K, 8310 kPa, x1 = 0.1484 | 866
323.15 K, 8540 kPa, x1 = 0.118 | 833
323.15 K, 8690 kPa, x1 = 0.086 | 762
323.15 K, 8770 kPa, x1 = 0.1484 | 872
323.15 K, 8880 kPa, x1 = 0.086 | 769
323.15 K, 8960 kPa, x1 = 0.118 | 840
323.15 K, 9020 kPa, x1 = 0.0242 | 394
323.15 K, 9080 kPa, x1 = 0.0242 | 401
323.15 K, 9120 kPa, x1 = 0.0242 | 408
323.15 K, 9170 kPa, x1 = 0.0242 | 417
323.15 K, 9180 kPa, x1 = 0.0481 | 607
323.15 K, 9220 kPa, x1 = 0.086 | 779
323.15 K, 9230 kPa, x1 = 0.0242 | 427
323.15 K, 9250 kPa, x1 = 0.1484 | 877
323.15 K, 9260 kPa, x1 = 0.0481 | 617
323.15 K, 9280 kPa, x1 = 0.0242 | 436
323.15 K, 9310 kPa, x1 = 0.118 | 845
323.15 K, 9350 kPa, x1 = 0.0242 | 447
323.15 K, 9410 kPa, x1 = 0.0242 | 458
323.15 K, 9410 kPa, x1 = 0.0481 | 638
323.15 K, 9480 kPa, x1 = 0.0242 | 470
323.15 K, 9550 kPa, x1 = 0.0242 | 482
323.15 K, 9570 kPa, x1 = 0.0481 | 650
